Columns and labels:
[1] = biological target: T1, Oxysterols receptor LXR-beta (Homo sapiens, UniProt P55055); assay: Binding affinity to recombinant human LXRbeta-LBD expressed in Escherichia coli BL21 (DE3) assessed as inhibitory constant incubated for 30 mins by fluorescence polarization binding assay
[2] = biological target: T1, Oxysterols receptor LXR-beta; assay: Agonist activity at recombinant human LXRbeta-LBD expressed in Escherichia coli BL21 (DE3) assessed as peptide D22 recruitment fluorescence polarization binding assay
[3] = biological target: T1, Oxysterols receptor LXR-beta; assay: Binding affinity to recombinant human LXRbeta-LBD expressed in Escherichia coli BL21 (DE3) assessed as dissociation constant incubated for 30 mins by fluorescence polarization binding assay

T1 sequence (P55055 whole entry, the tested form may be a part): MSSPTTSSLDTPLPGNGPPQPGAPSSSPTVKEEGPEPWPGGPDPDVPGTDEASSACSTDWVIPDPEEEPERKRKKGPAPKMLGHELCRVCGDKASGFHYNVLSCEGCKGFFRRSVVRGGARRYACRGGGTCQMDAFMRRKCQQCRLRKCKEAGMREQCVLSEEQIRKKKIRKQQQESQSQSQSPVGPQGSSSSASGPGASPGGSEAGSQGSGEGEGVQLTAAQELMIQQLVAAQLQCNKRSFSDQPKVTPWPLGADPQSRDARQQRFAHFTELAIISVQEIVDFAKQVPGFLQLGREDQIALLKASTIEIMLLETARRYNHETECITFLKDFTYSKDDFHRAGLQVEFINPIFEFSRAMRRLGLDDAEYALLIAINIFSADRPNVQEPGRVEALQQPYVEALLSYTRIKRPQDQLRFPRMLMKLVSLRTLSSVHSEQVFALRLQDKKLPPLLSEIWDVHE

Row | Structure (SMILES) | Ki [1] [µM] | EC50 [2] [µM] | Kd [3] [µM]
1 | Oc1cccc(Cl)c1 | 184 | 519 | 
2 | Brc1nn(C2CCCCO2)c2ncccc12 (stereo unspecified) | 209 |  | 
3 | CC(=O)c1c(C)ccc2ccccc12 | 153 |  | 
4 | COc1ccc(OC)c(Cl)c1 | 476 | 1030 | 
5 | CC(C)(C)OC(=O)N1Cc2cn[nH]c2C1 | 225 |  | 
6 | Oc1ccc(Cl)cc1 [PARACHLOROPHENOL] | 169 | 514 | 
7 | N#CC[C@H](C1CCCC1)n1cc(-c2ncnc3[nH]ccc23)cn1 [RUXOLITINIB] | 45 |  | 

Further lines, results first:

Row | Ki [1] [µM] | EC50 [2] [µM] | Kd [3] [µM] | Structure (SMILES)
8 | 68 |  |  | Oc1ccc(Sc2ccc(O)cc2)cc1
9 | 302 |  |  | COC(=O)c1ccc2cc[nH]c2c1
10 | 0.352 |  |  | CCOC(=O)c1ccc(CN(Cc2ccc(-c3cccc(S(C)(=O)=O)c3)cc2)S(=O)(=O)c2c(C)cc(C)cc2C)o1
11 | 140 | 19 |  | CCOC(=O)c1cn2nc[nH]c(=O)c2c1C(C)C
12 | > 500 |  |  | O=C1Nc2ccc(Br)cc2CO1
13 |  |  | 0.0489 | CC(C)[C@@H]1CN(c2ccc(CO)c(S(C)(=O)=O)c2)CCN1c1ncc(COC(=O)CCCCCNC(=S)Nc2ccc3c(c2)C(=O)OC32c3ccc(O)cc3Oc3cc(O)ccc32)c(C(F)(F)F)n1
14 | 0.0022 | 0.289 |  | O=C(O)Cc1cccc(OCCCN(Cc2cccc(C(F)(F)F)c2Cl)CC(c2ccccc2)c2ccccc2)c1
15 | 66 |  |  | CCCCOC(=O)c1ccc(O)cc1 [BUTYLPARABEN]
16 | 0.0142 |  |  | Fc1ccc(-c2c3cccc(C(F)(F)F)c3nn2Cc2ccc(F)cc2Cl)cc1 [LXR-623]

Reference: ChEMBL document CHEMBL4359821, “Identify liver X receptor β modulator building blocks by developing a fluorescence polarization-based competition assay” (Eur J Med Chem, 2019)
